Source: patent publication US20120114636A1, “LOW MOLECULAR WEIGHT CYCLIN E (LMW-E) AS A BIOMARKER FOR PERSONALIZATION OF CANCER THERAPIES” (The Board of Regents of the University of Texas System, priority 2009, published 2012)
“And” between values parts separate entries of the source, which are not always exact repeats. Identical values can stand only once.

What was measured:
Assay type in all cases: cell-based, human
MCF-7/Ac1 cells [1] = assay: Cell growth by cell counting, AD-stimulated cells; conditions: 3 days
Method: Cell growth. The effects of the aromatase inhibitors on MCF7/Ac1 cells growth were examined by counting the cells at the indicated time. The cells were detached from their flask using trypsin and counted using a Coulter counter machine.
To examine the effects of the three different aromatase inhibitors on the proliferation of MCF-7/Ac1 cells, cells were cultured in estrogen deprived, charcoal stripped serum media (CSSM). The response of the cells to 25 nM of androstenedione (AD) alone or AD plus one of the 3 aromatase inhibitors letrozole (FIG. 22A), anastrozole (FIG. 22B), and exemestane (FIG. 22C) was measured after 3 days of treatment. Cells maintained in CSSM were used as controls.
FIGS. 22A-22C show the effect of aromatase inhibitor treatment on proliferative response and cell cycle distribution of MCF-7/Ac1 cells. Cells were cultured in IMEM with 10% charcoal-stripped serum medium (CSSM) without phenol red and with 600 μg/ml of G418 for 4 days before plating. Cells (100,000) were seeded in 100 mm dishes and, 24 hrs later, were exposed for 3 days to the specific treatment. […] CSSM, untreated cells cultured in charcoal-stripped serum medium without phenol red and with 600 μg/ml of G418.

MCF-7/Ac1 cells [2] = assay: Cell cycle analysis by flow cytometry (PI)
Method: Cell cycle analysis. MCF-7/Ac1 cells were cultured in estrogen-deprived media with or without 25 nM 4-androstenedione, and treated with different concentrations of aromatase inhibitors. Untreated and drug treated cells were collected 72 hours later for flow cytometry and lysates were prepared for western blot and kinase assays.
Flow cytometry analysis. Cells were pelleted and resuspended in 1.5 ml of PBS, then fixed in 3.5 ml of 95% ethanol overnight at −20° C. After being washed, the pellets were resuspended in a solution of PBS containing 10 μg/ml propidium iodide, 20 μg/ml RNase A, 0.5% Tween 20, and 0.5% BSA and incubated at 37° C. for 30 min. The profiles of cells in the G0-G1, S, and G2-M phases of the cell cycle were analyzed at the M. D. Anderson Cancer Center Cytometry Core Facility on a FACS Caliber machine equipped with Cellquest or ModFit software.
FIGS. 22A-22C show the effect of aromatase inhibitor treatment on proliferative response and cell cycle distribution of MCF-7/Ac1 cells. Cells were cultured in IMEM with 10% charcoal-stripped serum medium (CSSM) without phenol red and with 600 μg/ml of G418 for 4 days before plating. Cells (100,000) were seeded in 100 mm dishes and, 24 hrs later, were exposed for 3 days to the specific treatment. […] Cell growth is expressed as the percentage of the cells compared with the control cells (25 nM AD treated cells, 575,000 cells at day 3). Columns, mean of two to three experiments, each in triplicates; bars, S.D. *, P<0.05, when compared to cells only treated with 25 nM AD; n.s, not significant. CSSM, untreated cells cultured in charcoal-stripped serum medium without phenol red and with 600 μg/ml of G418.

[3] = test system: cyclin E-associated kinase activity in MCF-7/Ac1 cells; assay: Cyclin E-associated kinase assay (histone H1); conditions: 25 nM AD, 3 days
Method: (§1) Immunoprecipitation and Immunoblotting. Two hundred fifty μg of cell extracts were used per immunoprecipitation with polyclonal antibody to cyclin E or polyclonal antibody to CDK2, coupled to protein A beads. After being washed, the immunoprecipitates were subjected to electrophoresis in 13% gels, transferred to Immobolin P, blocked, and incubated with the indicated antibodies as already described.
(§2) MCF-7/Ac1 cells were treated with the indicated concentrations of letrozole and AD for 3 days. Cyclin E kinase assays were performed by immunoprecipitating equal amounts of cell lysate (250 μg) with monoclonal antibodies to cyclin E coupled to protein A beads, using histone H1 as substrate. […] The same cell lysates were subjected to western blot analysis (50 μg of protein) with the indicated antibodies. […] The same cell lysates were first immunoprecipitated with cyclin E followed by western blot for p21 and p27. […] The same cell lysates were first immunoprecipitated with CDK2 followed by western blot for p21 and p27. The levels of proteins were measured by densitometric scanning of the corresponding bands and normalized using actin values. The values indicated at the bottom were compared to the values obtained with untreated cells.

MCF-7/Ac1 cells [4] = assay: Western blot of CDK2, phospho-CDK2, cyclin E, pRb; conditions: 25 nM AD
Method: FIG. 28. Effect of increasing concentrations of letrozole in the presence of 25 nM AD on CDK2 kinase activity, activated CDK2 and Rb phosphorylation of MCF7/Ac1 human breast cancer cells. MCF-7/Ac1 cells were treated with the indicated concentrations of letrozole and AD for 3 days. CDK2 kinase assays were performed by immunoprecipitating equal amounts of cell lysate (250 μg) with monoclonal antibodies to CDK2 (D12, sc-6248) coupled to protein G beads, using histone H1 as substrate. […] The same cell lysates were subjected to western blot analysis (50 μg of protein) with the indicated antibodies.
(§3) Western blot analysis. Cell lysates were prepared and subjected to western blot analysis as described previously (Akli et al., 2004). Briefly, 50 μg of protein were subjected to electrophoresis on SDS-PAGE and transferred to Immobilon P overnight at 4° C. at […] constant voltage. The blots were blocked overnight at 4° C. in BLOTTO [5% nonfat dried milk in 20 mM Tris, 137 mM NaCl, and 0.05% Tween (pH 7.6)]. After being washed, the blots were incubated in primary antibodies for 3 h. Primary antibodies used were cyclin E (HE-12; Santa Cruz Biotechnology), p21 (0P64; Oncogene Research Products, Boston, Mass.), p27 (K25020; BD Biosciences-Transduction Laboratories, Lexington, Ky.), cyclin-dependent kinase 2 (CDK2; Transduction Laboratories), and actin (Chemicon International, Inc., Temecula, Calif.). Blots were then incubated with goat anti-mouse or anti-rabbit immunoglobulin-horseradish peroxidase conjugate at a dilution of 1:5000 in BLOTTO for 1 h and finally washed and developed by using the Renaissance chemiluminescence system as directed by the manufacturer (Perkin-Elmer Life Sciences, Inc., Boston, Mass.). Western blots were quantitated by densitometric analysis using IPLab Gel software (Scientific Image Processing, Vienna, Va.). Densitometric values of actin were used to standardize for equal protein loading. These values were introduced into the software Graph-Pad Prism version 4.0 (GraphPad Software, Inc., San Diego, Calif.) for statistical analysis.
as §2

[5] = test system: cyclin E and CDK2 complexes in MCF-7/Ac1 cells; assay: Immunoprecipitation of cyclin E or CDK2 followed by western blot for p21 and p27; conditions: 25 nM AD
Method: as §1, §2

[6] = test system: CDK2 protein in MCF-7/Ac1 cells; assay: Western blot of CDK2 protein levels in adenovirus-infected cells; conditions: 25 nM AD, uninfected and LacZ infected cells
Method: as §3
MCF-7/Ac1 cells were cultured in IMEM with 10% charcoal-stripped serum medium (CSSM) without phenol red and with 600 μg/ml of G418 for 4 days before plating. […] Cells were then infected with the indicated adenoviruses (at 4000 m.o.i.) 24 hours before drug treatment.

MCF-7/Ac1 cells [7] = assay: Sequential AD/letrozole then roscovitine treatment: cell number and CDK2 western blot; conditions: additional two days in medium or medium plus DMSO
Method: Medium alone or medium plus DMSO were used as controls. A schematic of the treatment strategy is depicted in FIG. 25A. At the conclusion of the treatment, cells were enumerated and subjected to western blot analysis with CDK2 (total) and phospho-CDK2 antibodies.
Cells were then infected with the indicated adenoviruses (at 4000 m.o.i.) 24 hours before drug treatment.

BT474 cells = assay: High throughput clonogenic assay, trastuzumab and roscovitine; conditions: agents alone or in combination
Method: (§4) FIGS. 27A-27B. […] FIG. 27B. […] Isobologram analysis and graphs were obtained using CalcuSyn software, which performs drug dose—effect calculation using the median effect method. Experiments were performed in triplicate and representative data are shown.

SKBr3 cells = assay: as above; conditions: agents alone or in combination
Method: as §4

MCF-7/Ac1 cells [8] = assay: Cell number of adenovirus-infected cells (LacZ, cyclin EL, T1, T2); conditions: 20 uM, uninfected, LacZ or cyclin E-T1 infected cells
From the text: LMW cyclin E, but not full-length cyclin E, overexpressing MCF-7/Ac1 cells partially override the letrozole inhibition of AD-induced S-phase entry and AD-induced CDK2 protein levels. Since overexpression of LMW cyclin E deregulates the G1 to S transition, the inventors interrogated the role of full-length and LMW cyclin E in letrozole response. To this end, the inventors examined the sensitivity of cyclin E overexpressing MCF-7/Ac1 cells to the growth inhibitory effect of letrozole using adenoviruses to overexpress full-length and LMW cyclin E (FIGS. 24A-24D). MCF-7/Ac1 cells were cultured in charcoal stripped serum media (CSSM) for 4 days before infecting them with 4000 m.o.i. of either LacZ, full-length cyclin E (cyclin EL) or LMW cyclin E (cyclin E-T1 and cyclin E-T2). Twenty-four hours later, cells were left either untreated, treated with 25 nM AD alone, or treated with 25 nM AD plus 1 μM letrozole for an additional 3 days (FIGS. 24A-24B). Following the treatment, cells were enumerated or subjected to flow cytometry analysis.
MCF-7/Ac1 cells were cultured in IMEM with 10% charcoal-stripped serum medium (CSSM) without phenol red and with 600 μg/ml of G418 for 4 days before plating. Triplicate wells of 6-well plates were then infected with the indicated adenoviruses (at 4000 m.o.i.) 24 hours before drug treatment. Cells were then left untreated (E2W, estrogen withdrawal) or treated with 25 nM AD (AD) or treated with 25 nM AD and 1 μM letrozole (AD+Let) and collected 3 days later for cell number. Cell growth is expressed as the percentage of the cells compared with the control cells (25 nM AD treated cells). […] MCF-7/Ac1 cells were treated as described in A, and collected for flow cytometry analysis. Histograms represent the S-phase fraction expressed as the percentage of the cells in S-phase compared with the control cells (25 nM AD treated cells). […] The same cell lysates as in A and B were subjected to western blot analysis (50 μg of protein) with cyclin E and CDK2 antibodies. The bar graph represents the densitometric values of the phosphorylated CDK2 bands. […] Left, MCF-7/Ac1 cells were cultured in IMEM with 10% charcoal-stripped serum medium (CSSM) without phenol red and with 600 μg/ml of G418 for 4 days before plating. Cells were then infected with the indicated adenoviruses (at 4000 m.o.i.) 24 hours before drug treatment. Cells were then treated with 25 nM AD and 1 μM letrozole and collected 3 days later for cell number. […] Columns, mean of two to three experiments, each in triplicates; bars, S.D.
To directly address this question, MCF-7/Ac1 cells were cultured in charcoal stripped serum media (CSSM) for 4 days before adding medium with no virus or with 4000 m.o.i. of either LacZ, or LMW cyclin E (cyclin E-T1) adenoviruses. 24 hours later, cells were left untreated, treated with 25 nM AD alone, or treated with 25 nM AD plus 1 μM letrozole for 3 days (FIG. 24D). The AD-induced growth of MCF-7/Ac1 cells was inhibited by letrozole by 51% in uninfected cells and by 58% in LacZ infected cells while the growth of cyclin E-T1 infected cells was inhibited by only 20% (FIG. 24D, left).

## C[C@]12CCC(=O)C=C1CC[C@@H]1[C@@H]2CC[C@]2(C)C(=O)CC[C@@H]12 [AD, androstenedione]
MCF-7/Ac1 cells [1]; 25 nM AD
  increase in cell number compared to control cells (CSSM): 3.9+/−1.3 fold
MCF-7/Ac1 cells [2]; 25 nM AD alone
  fraction of cells in S phase: 40.3+/−1.9%
  increase of fraction of cells in S phase compared to vehicle treated cells: 7.3 fold
MCF-7/Ac1 cells [2]; 25 nM AD alone (baseline of exemestane comparison)
  cells in G0-G1: 35.1+/−0.8%
[3]
  increase in cyclin E-associated kinase activity compared to vehicle treated cells: 1.6 fold
MCF-7/Ac1 cells [4]
  cyclin E protein levels: not affected
MCF-7/Ac1 cells [4]; 3 days
  increase in CDK2 protein levels compared to vehicle treated cells: 2.3 fold
MCF-7/Ac1 cells [4]; phospho-specific CDK2 antibody
  increase in phospho-CDK2: 3.5 fold
[5]
  increase in p21 binding to CDK2: 1.5 fold
  p21 binding to cyclin E: did not affect
[6]
  increase in total CDK2 protein levels: 1.8 fold
MCF-7/Ac1 cells [7]; LMW cyclin E overexpressing cells
  increase in AD-induced proliferation: 2.3 fold and 2.8 fold
MCF-7/Ac1 cells [7]; LacZ infected cells
  increase in AD-induced proliferation: 3.5 fold
MCF-7/Ac1 cells [7]; uninfected cells
  increase in AD-induced proliferation: 4 fold

## CC(C)(C#N)c1cc(Cn2cncn2)cc(C(C)(C)C#N)c1 [anastrozole]
MCF-7/Ac1 cells [1]; any of the concentrations tested, with 25 nM AD
  inhibition of AD-induced growth: did not inhibit
MCF-7/Ac1 cells [2]; 10 μM, with 25 nM AD
  effect on cell cycle distribution: more subtle effect

## C=C1C[C@@H]2[C@H](CC[C@]3(C)C(=O)CC[C@@H]23)[C@@]2(C)C=CC(=O)C=C12 [exemestane]
MCF-7/Ac1 cells [1]; Homo sapiens, MCF7, 72 h, 1 μM, with 25 nM AD, read-out: inhibition of AD-induced growth
  inhibition at 1 µM: 25%
MCF-7/Ac1 cells [1]; Homo sapiens, MCF7, 72 h, 10 μM, with 25 nM AD, read-out: inhibition of AD-induced growth
  inhibition at 10 µM: 42%
MCF-7/Ac1 cells [2]; 10 μM, with 25 nM AD
  cells in G0-G1: 49.2+/−0.7%
  cells in S phase: 31.7+/−2.5%

## CC[C@H](CO)Nc1nc(NCc2ccccc2)c2ncn(C(C)C)c2n1 [roscovitine]
BT474 cells
  cell viability: dose-dependent reduction in cell viability
SKBr3 cells
  cell viability: dose-dependent reduction in cell viability
MCF-7/Ac1 cells [8]
  inhibition of AD-induced increase in cell number: completely inhibited
